US20220089592A1, “IMIDAZO[1,2-A]PYRIDINYL DERIVATIVES AS IRAK4 INHIBITORS” (priority 2019, published 2022)

Columns and labels:
[1] = molecular target: T1, IRAK4 (Homo sapiens, UniProt Q9NWZ3); assay: 2-hour 10 μM ATP Biochemical Assay (MesoScale Detection format; IRAK4 phosphorylation of biotin labeled IRAK1 activation loop peptide); details: IRAK4 MSD BIOCHEMICAL (10 μM ATP) IC50 (μM), 1 nM IRAK4, 2 hours
T1 sequence (Q9NWZ3 1-460): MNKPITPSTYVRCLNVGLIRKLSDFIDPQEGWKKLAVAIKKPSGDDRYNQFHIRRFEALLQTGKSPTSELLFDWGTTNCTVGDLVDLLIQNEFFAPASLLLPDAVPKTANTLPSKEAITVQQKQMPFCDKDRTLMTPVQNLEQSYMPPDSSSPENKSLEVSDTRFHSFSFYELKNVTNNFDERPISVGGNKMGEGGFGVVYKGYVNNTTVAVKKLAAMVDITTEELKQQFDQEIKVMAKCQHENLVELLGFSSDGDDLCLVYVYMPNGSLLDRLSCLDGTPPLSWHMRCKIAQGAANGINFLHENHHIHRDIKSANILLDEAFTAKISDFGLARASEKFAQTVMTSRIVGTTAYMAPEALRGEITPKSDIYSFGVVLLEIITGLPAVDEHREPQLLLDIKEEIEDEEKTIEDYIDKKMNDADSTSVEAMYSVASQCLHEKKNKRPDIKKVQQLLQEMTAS
Procedure, shortened: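 Kinase reaction run 2 h at 10 μM ATP with biotinylated IRAK1 activation-loop peptide, quenched with EDTA. Phospho-peptide captured on streptavidin MSD plates and detected with anti-phosphothreonine rabbit antibody plus Sulfo-Tag anti-rabbit electrochemiluminescence.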

[2] = molecular target: T1, IRAK4; assay: 2-hour 1 mM ATP IRAK4 Biochemical assay (as above, but with 100 pM IRAK4 and 1 mM ATP); details: IRAK4 MSD BIOCHEMICAL (1 mM ATP) IC50 (μM), 100 pM IRAK4, 2 hours
Procedure, shortened: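 Run with 100 pM IRAK4 and 1 mM ATP for 2 hours, quenched with EDTA pH 8. Phosphorylated biotinylated peptide captured on streptavidin MSD plates and detected with anti-phosphothreonine antibody plus Sulfo-Tag secondary by electrochemiluminescence.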

SMILES	IC50 [1] [µM]	IC50 [2] [µM]
CCOc1cc2nc(C3CCOCC3)cn2cc1NC(=O)c1scc(C)c1OC [Example 211, N-(7-ethoxy-2-(tetrahydro-2H-pyran-4-yl)imidazo[1,2-a]pyridin-6-yl)-3-methoxy-4-methylthiophene-2-carboxamide]	0.007	0.022
CCOc1cc2nc(C(C)(C)C#N)cn2cc1NC(=O)c1coc(C2CC2)n1 [Example 360, N-(2-(2-cyanopropan-2-yl)-7-ethoxyimidazo[1,2-a]pyridin-6-yl)-2-cyclopropyloxazole-4-carboxamide]	0.006	0.005
CCOc1cc2nc(C3CCOCC3)cn2cc1NC(=O)c1cccc(OCCOC)n1 [Example 516, N-(7-ethoxy-2-(tetrahydro-2H-pyran-4-yl)imidazo[1,2-a]pyridin-6-yl)-6-(2-methoxyethoxy)picolinamide]	0.007	0.034

Compounds with a lower IC50 [1], results first:

IC50 [1] [µM]	IC50 [2] [µM]	SMILES
0.003	0.001	CC(C)Oc1c(NC(=O)c2cnn3cccnc23)cn2cc(C34COC(C)(C3)C4)nc2c1F [Example 577, N-(8-fluoro-7-isopropoxy-2-(1-methyl-2-oxabicyclo[2.1.1]hexan-4-yl)imidazo[1,2-a]pyridin-6-yl)pyrazolo[1,5-a]pyrimidine-3-carboxamide]
0.003	0.011	CCOc1cc2nc(C3CC(F)(F)C3)cn2cc1NC(=O)c1cccc(C(F)(F)F)n1 [Example 33, N-(2-(3,3-difluorocyclobutyl)-7-ethoxyimidazo[1,2-a]pyridin-6-yl)-6-(trifluoromethyl)picolinamide]
